Reference: PubChem BioAssay (NCI)
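Compound exposure: 48 hours, 5 concentrations, 96-well plates. At the TGI there is no net growth.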

Key:
Assay in all cases: DTP human tumour cell line panel, 48 h
SF-295 CNS = tested on: SF-295 CNS
MDA-MB-231 breast = tested on: MDA-MB-231 breast
DU-145 prostate = tested on: DU-145 prostate
A549 NSCLC = tested on: A549 NSCLC
HT29 colon = tested on: HT29 colon
NCI-H226 lung = tested on: NCI-H226 lung

SMILES	TGI (SF-295 CNS) [µM]	TGI (MDA-MB-231 breast) [µM]	TGI (DU-145 prostate) [µM]	TGI (A549 NSCLC) [µM]	TGI (HT29 colon) [µM]	TGI (NCI-H226 lung) [µM]
COC(=O)C1=NN2c3ccccc3CN([C@@H](C)c3ccccc3)C(=O)[C@@H]2C1	> 100	> 100	> 100	> 100	> 100	> 100
Cc1cccc(C)c1NC(=S)/N=C/C1=C(O)c2ccccc2C1=O	> 100	> 100	> 100	> 100	> 79.2	> 100
Cn1ncc2c(NCCc3ccccc3)nc(Cl)nc21	67.7	39.4	> 100	77.4	31	76.1
Cn1cc(-c2ccc(CCOC3CCCCO3)cc2)c2c(C#N)cccc21 (configuration not stated)	> 100	> 100	> 100	> 100	45.3	–
COC(=O)C(Cc1ccccc1)NS(=O)(=O)c1ccc(-c2c3nc(c(-c4ccc(S(=O)(=O)NC(Cc5ccccc5)C(=O)OC)cc4)c4ccc([nH]4)c(-c4ccc(S(=O)(=O)NC(Cc5ccccc5)C(=O)OC)cc4)c4nc(c(-c5ccc(S(=O)(=O)NC(Cc6ccccc6)C(=O)OC)cc5)c5ccc2[nH]5)C=C4)C=C3)cc1 (configuration not stated)	> 100	> 100	> 100	> 100	> 100	–
C=CCC1(O)c2cccc(O)c2C(=O)c2c(O)cccc21	> 100	> 100	> 100	88.4	67.9	> 100
Cc1sc(N=Nc2c(O)[nH]c3ccccc23)nc1-c1ccccc1	29.1	33.3	24.8	32.6	54.5	> 100
CNC(Cc1ccccc1)c1cccc(OC)c1O (configuration not stated)	> 100	> 100	> 100	> 100	> 100	> 100
CC(C)CCNC(=O)c1ccc(CNC(=O)/C=C/c2ccc(-c3ccccc3[N+](=O)[O-])o2)cc1	> 100	> 100	> 100	> 100	–	62.9
Cc1cc(S(=O)(=O)Nc2nc(N)n(C)n2)c(S)cc1Cl	> 10	> 10	> 10	> 10	> 10	> 10
Nc1ncnc2c1ncn2CC(OCP(=O)(O)O)Oc1ccccc1 (configuration not stated)	> 100	> 100	> 100	> 100	–	> 100
CCNC1CC(C(C)(C)NCC)CC=C1C (configuration not stated)	> 100	> 100	> 100	> 100	> 100	–
c1ccc(C2CC(N3CCOCC3)=Nc3ccccc3N2)cc1 (configuration not stated)	> 100	> 100	> 100	> 100	> 100	> 100
COC(=O)[C@]1(c2cc3ccccc3[nH]2)CC2CN(CC(=O)N(C)OC)C1C1OC(C)(C)OC21 (some centres not stated)	> 100	> 100	> 100	> 100	> 100	> 100
CS(=O)(=O)C(=Cc1ccccc1Cl)S(C)(=O)=O	> 46.4	> 100	> 100	> 100	> 100	> 100
CC(C)(C)OC(=O)C(C1NC(C(=O)O)C(C)(C)S1)N1C(=O)c2ccccc2C1=O (configuration not stated)	> 100	> 100	> 100	> 100	> 100	–
COc1cccc(/C=N/n2c(-c3ccccc3)n[nH]c2=O)c1	54.4	> 100	> 100	> 100	> 100	> 100
CC[n+]1[b-](C(C)(C)C)n(/N=C(\C)C(C)(C)C)[b-](C(C)(C)C)[n+]1CC	> 100	> 100	–	> 100	> 100	> 100
O=[N+]([O-])C(=C1Nc2ccccc2N1)C(Cl)=C(Cl)Cl	> 100	90.3	> 100	> 100	> 100	> 100
CCOC(=O)c1sc2nc(SC)nc(Nc3ccc(OC)c(OC)c3)c2c1N	45.6	82.4	> 100	> 100	> 100	> 100
CC(=O)OCCn1c(Cc2ccc([N+](=O)[O-])cc2)nn(C(C)=O)c1=O	> 100	> 100	> 100	> 100	> 100	> 100
COc1ccc(OC)c(C2CCc3cnc4nc(N)nc(N)c4c3C2)c1 (configuration not stated)	> 100	> 100	> 100	> 100	> 100	–
Cc1ccc(S(=O)(=O)n2ccn3c(=O)cc(C)nc23)cc1	> 10	> 10	> 10	> 10	> 10	> 10
C=CCCCC1(C)CCCCNC1=O (configuration not stated)	> 10	> 10	> 10	> 10	> 10	> 10
COc1cc(OC)c(/C=N/N=C(\N)NO)c(OC)c1	> 100	> 100	> 100	> 100	> 100	> 100
CCCCCCCCCCCCCCCCCCNc1ccn(C2OC(CO)C(OP(=O)(O)OCC3CCC(n4ccc(N)nc4=O)O3)C2O)c(=O)n1 (configuration not stated)	> 100	> 100	> 100	> 100	> 100	> 100
Nc1nc(Cl)c2ncn(Cc3ccccc3CCl)c2n1	23.4	9.61	32.3	53.1	18.9	9.95
CC[C@H](CCCCC1CC[C@@H]2CC(=O)C[C@H]12)OC (some centres not stated)	> 100	> 100	> 100	> 100	> 100	> 100
COc1cc2c(cc1OC)-c1cc3ccccc3c(=O)n1CCC2	> 85	57.2	> 66	> 100	41.2	70.5
COc1cc(/C=C2\NC(=O)N(/C=C3\C(=O)Oc4ccccc4C3=O)C2=O)ccc1O	> 100	> 100	> 100	> 100	> 100	> 100
